Experiments:
Assay in all cases: Eurofins kinase selectivity profile against 380 other human recombinant kinases (Table S2)
Format in all cases: biochemical
[1] = target: T1, 380 human recombinant protein kinases (Homo sapiens, UniProt Q9BYT3); settings: STK33(h), read-out: Inhibition rate (%)
T1 construct: purchased Eurofins (Celle Lévescault)
Procedure, shortened: (§1)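 Selectivity panel of 380 human recombinant protein kinases, screened by Eurofins at a range of concentrations.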

[2] = target: T2, 380 human recombinant protein kinases (Homo sapiens, UniProt Q99683); settings: ASK1(h), read-out: Inhibition rate
T2 construct: purchased Eurofins (Celle Lévescault)
T2 sequence (Q99683 1-1374): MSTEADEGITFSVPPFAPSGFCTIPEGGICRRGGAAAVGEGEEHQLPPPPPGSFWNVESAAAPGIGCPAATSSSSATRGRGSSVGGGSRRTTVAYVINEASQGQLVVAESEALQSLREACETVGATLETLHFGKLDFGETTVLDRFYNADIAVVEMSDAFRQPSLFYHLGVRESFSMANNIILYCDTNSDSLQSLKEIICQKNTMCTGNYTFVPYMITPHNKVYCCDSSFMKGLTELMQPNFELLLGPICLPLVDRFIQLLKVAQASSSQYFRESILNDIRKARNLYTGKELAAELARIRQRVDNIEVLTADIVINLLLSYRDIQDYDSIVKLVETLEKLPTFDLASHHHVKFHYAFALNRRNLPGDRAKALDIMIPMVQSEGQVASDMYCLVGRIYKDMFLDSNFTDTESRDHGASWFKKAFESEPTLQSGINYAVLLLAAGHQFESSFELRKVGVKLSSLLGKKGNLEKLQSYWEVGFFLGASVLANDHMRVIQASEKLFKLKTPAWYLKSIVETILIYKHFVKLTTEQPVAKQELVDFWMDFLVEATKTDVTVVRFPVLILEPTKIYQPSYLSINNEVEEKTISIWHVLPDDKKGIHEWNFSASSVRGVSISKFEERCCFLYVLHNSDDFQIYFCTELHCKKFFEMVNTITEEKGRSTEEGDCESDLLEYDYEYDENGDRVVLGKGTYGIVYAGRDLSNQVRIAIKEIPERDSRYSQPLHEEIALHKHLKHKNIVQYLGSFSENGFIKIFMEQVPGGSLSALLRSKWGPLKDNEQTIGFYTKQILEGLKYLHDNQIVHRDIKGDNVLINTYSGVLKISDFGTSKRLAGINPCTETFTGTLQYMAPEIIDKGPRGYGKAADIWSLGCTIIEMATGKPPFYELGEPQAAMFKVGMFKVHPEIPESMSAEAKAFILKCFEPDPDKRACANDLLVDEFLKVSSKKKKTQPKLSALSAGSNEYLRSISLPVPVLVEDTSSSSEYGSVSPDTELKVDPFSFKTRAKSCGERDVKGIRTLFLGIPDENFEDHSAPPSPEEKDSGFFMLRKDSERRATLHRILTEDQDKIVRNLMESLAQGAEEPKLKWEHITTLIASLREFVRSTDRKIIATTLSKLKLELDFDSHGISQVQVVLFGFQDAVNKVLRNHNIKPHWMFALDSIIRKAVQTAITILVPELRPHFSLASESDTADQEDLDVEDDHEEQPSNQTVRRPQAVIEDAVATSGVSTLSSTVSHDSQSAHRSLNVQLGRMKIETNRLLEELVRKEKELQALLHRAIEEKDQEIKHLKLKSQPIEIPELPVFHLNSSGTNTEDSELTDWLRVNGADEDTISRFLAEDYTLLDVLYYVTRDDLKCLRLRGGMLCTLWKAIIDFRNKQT
Procedure, shortened: as §1

[3] = target: T3, 380 human recombinant protein kinases (Homo sapiens, UniProt P54756); settings: EphA5(h), read-out: Inhibition rate
T3 construct: purchased Eurofins (Celle Lévescault)
T3 sequence (P54756 25-1037): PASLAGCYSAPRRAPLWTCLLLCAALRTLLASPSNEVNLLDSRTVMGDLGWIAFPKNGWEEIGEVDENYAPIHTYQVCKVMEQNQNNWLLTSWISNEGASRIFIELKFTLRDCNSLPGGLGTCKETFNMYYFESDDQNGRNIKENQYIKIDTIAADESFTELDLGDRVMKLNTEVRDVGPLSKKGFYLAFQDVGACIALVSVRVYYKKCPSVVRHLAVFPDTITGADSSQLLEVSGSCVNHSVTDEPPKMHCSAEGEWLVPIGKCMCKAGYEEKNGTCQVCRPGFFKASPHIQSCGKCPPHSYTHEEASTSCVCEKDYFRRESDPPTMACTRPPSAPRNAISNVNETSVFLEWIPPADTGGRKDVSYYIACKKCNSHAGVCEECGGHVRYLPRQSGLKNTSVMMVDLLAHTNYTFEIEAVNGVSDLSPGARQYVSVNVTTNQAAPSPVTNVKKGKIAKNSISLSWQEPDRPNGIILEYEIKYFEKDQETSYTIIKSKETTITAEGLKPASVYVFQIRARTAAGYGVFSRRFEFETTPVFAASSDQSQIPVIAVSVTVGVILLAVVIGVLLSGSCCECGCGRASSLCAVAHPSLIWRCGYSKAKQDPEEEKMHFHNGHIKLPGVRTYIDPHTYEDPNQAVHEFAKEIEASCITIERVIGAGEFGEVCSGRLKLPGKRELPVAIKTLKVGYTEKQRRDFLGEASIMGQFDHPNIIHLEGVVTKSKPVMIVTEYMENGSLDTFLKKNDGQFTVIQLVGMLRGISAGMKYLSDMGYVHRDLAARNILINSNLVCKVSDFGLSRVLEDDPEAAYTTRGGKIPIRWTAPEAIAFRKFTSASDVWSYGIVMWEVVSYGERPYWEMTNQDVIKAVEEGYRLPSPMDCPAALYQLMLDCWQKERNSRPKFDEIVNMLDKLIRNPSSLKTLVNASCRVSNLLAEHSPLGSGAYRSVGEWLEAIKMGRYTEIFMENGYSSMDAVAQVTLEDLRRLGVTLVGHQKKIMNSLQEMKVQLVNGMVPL
Procedure, shortened: as §1

[4] = target: T4, 380 human recombinant protein kinases (Homo sapiens, UniProt P29597); settings: TYK2(h), read-out: Inhibition rate (%)
T4 construct: purchased Eurofins (Celle Lévescault)
T4 sequence (P29597 whole entry): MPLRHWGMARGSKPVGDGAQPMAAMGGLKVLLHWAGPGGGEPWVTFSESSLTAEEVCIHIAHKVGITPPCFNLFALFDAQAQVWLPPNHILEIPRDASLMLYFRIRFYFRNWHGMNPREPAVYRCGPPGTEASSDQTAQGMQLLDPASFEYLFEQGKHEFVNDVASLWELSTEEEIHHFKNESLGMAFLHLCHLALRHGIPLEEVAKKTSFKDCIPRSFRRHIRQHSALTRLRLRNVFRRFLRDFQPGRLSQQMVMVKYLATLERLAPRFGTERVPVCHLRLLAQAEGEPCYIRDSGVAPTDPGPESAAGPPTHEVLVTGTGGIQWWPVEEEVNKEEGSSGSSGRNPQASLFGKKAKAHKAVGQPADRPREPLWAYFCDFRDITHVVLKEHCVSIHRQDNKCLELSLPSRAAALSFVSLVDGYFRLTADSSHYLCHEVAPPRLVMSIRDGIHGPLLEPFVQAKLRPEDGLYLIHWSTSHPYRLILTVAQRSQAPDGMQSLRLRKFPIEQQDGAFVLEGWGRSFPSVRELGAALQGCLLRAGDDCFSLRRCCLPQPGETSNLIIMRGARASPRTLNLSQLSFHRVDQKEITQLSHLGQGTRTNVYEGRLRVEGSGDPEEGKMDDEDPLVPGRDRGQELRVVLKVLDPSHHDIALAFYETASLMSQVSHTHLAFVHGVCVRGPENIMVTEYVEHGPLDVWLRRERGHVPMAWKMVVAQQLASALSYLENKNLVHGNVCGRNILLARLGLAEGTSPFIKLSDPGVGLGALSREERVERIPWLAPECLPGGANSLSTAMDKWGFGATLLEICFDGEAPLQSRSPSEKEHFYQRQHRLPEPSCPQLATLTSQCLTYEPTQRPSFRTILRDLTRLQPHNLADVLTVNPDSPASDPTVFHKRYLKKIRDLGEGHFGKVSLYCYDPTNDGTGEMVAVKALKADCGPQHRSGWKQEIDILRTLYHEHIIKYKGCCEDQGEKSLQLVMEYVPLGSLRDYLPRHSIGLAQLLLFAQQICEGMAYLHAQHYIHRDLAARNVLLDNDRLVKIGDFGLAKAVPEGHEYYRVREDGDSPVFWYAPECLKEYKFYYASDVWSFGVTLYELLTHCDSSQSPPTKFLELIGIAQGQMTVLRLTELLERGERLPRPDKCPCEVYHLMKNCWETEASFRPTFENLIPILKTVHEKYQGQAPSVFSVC
Procedure, shortened: as §1

T1 sequence (Q9BYT3 whole entry): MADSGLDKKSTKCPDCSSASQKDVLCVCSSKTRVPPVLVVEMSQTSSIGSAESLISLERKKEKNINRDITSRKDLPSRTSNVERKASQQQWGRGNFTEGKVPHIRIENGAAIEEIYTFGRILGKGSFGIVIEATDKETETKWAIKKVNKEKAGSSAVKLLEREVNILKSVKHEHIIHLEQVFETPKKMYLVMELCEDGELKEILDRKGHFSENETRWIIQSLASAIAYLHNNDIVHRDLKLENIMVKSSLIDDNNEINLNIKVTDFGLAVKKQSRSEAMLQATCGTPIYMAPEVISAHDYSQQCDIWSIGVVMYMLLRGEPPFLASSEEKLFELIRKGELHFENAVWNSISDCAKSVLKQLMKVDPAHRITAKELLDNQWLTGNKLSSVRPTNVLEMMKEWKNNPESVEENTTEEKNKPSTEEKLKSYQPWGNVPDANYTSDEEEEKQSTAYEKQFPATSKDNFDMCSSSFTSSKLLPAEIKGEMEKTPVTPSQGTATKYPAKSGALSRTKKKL

Question: How did the inhibition at 0.01 µM ([1]; 10 nM) turn out when `C=CC(=O)Nc1cc(-c2cc(-c3cc4c([nH]3)CCNC4=O)ccn2)ccc1OC(F)(F)F` [compound 11] was run?
Answer: 8%

Question: And the inhibition at 0.1 µM ([1]; 100 nM)?
Answer: 18%

Question: And the inhibition at 1 µM ([1]; 1000 nM)?
Answer: 64%

Question: And the inhibition at 0.01 µM ([2]; 10 nM)?
Answer: 14%

Question: And the inhibition at 0.1 µM ([2]; 100 nM)?
Answer: 33%

Question: What about the inhibition at 1 µM ([2]; 1000 nM) of the same molecule?
Answer: 83%

Question: And the inhibition at 0.01 µM ([3]; 10 nM)?
Answer: -1%

Question: What about the inhibition at 0.1 µM ([3]; 100 nM) of the same molecule?
Answer: 4%

Question: And the inhibition at 1 µM ([3]; 1000 nM)?
Answer: 1%

Question: What about the inhibition at 0.01 µM ([4]; 10 nM) of the same molecule?
Answer: 1%

Question: What about the inhibition at 0.1 µM ([4]; 100 nM) of the same molecule?
Answer: 10%

Question: What about the inhibition at 1 µM ([4]; 1000 nM) of the same molecule?
Answer: 14%

Reference: paper PMC11233931, “Remodeling tumor‐associated macrophage for anti‐cancer effects by rational design of irreversible inhibition of mitogen‐activated protein kinase‐activated protein kinase 2” (MedComm, 2024)
